Data taken from US11591323B2, “Muscarinic agonists as non-steroidal and non-opioid analgesics and methods of use thereof” (Barry University, priority 2019, dated 2023).
Like-named read-outs stand apart in the source and are kept apart here. One block for each compound: values may come before it.

What was measured:
Set-up in all cases: host or cells: CHO cells, stably transfected
M4 muscarinic receptor = target: T1, M4 muscarinic receptor (Homo sapiens, UniProt P08173); experiment: inhibition of forskolin-stimulated cAMP, M4 CHO cells (M4Gi); type: cell-based; details: for Emax: CHO, read-out: E′MAX; for Kd: read-out: pKA (converted); for EC50: read-out: pEC50 (converted)
T1 sequence (P08173 1-479): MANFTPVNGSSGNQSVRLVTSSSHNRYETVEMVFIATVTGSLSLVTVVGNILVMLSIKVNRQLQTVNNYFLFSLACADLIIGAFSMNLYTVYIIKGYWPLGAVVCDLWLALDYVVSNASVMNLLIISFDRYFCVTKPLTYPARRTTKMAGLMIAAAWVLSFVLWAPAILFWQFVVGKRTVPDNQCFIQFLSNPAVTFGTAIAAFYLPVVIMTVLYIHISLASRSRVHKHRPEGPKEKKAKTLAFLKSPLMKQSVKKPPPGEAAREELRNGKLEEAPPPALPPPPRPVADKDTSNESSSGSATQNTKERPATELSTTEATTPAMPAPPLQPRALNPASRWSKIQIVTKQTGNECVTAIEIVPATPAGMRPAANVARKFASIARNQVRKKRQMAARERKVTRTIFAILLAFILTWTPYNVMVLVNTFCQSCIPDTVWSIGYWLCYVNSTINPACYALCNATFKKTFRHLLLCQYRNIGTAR

M1 muscarinic receptor [1] = target: T2, M1 muscarinic receptor (Homo sapiens, UniProt P11229); experiment: accumulation of inositol phosphates IPX, M1 CHO cells (M1Gq); type: cell-based; details: for Kd: operational model, read-out: pKA (converted); for EC50: read-out: pEC50 (converted)
T2 sequence (P11229 1-460): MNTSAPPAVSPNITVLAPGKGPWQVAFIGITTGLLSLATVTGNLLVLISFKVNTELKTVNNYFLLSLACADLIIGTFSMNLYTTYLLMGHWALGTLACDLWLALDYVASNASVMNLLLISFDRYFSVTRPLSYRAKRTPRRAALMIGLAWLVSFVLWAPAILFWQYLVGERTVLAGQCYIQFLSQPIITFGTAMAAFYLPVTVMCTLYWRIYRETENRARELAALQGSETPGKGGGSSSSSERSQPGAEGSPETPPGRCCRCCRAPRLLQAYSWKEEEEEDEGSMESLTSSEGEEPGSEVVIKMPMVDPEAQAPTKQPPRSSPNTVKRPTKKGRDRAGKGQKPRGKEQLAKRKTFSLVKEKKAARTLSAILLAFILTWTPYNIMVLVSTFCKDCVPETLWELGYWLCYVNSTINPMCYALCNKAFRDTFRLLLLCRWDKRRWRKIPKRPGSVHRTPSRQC

M1 muscarinic receptor [2] = target: T2, M1 muscarinic receptor; experiment: [3H]NMS competition binding, M1 CHO membranes; details: competition with 1 nM [3H]NMS; read-out: Inhibition constants (Ki) as negative logarithms, M1 (converted)
M2 muscarinic receptor [3] = target: T3, M2 muscarinic receptor (Homo sapiens, UniProt P08172); experiment: [3H]NMS competition binding, M2 CHO membranes
T3 sequence (P08172 1-466): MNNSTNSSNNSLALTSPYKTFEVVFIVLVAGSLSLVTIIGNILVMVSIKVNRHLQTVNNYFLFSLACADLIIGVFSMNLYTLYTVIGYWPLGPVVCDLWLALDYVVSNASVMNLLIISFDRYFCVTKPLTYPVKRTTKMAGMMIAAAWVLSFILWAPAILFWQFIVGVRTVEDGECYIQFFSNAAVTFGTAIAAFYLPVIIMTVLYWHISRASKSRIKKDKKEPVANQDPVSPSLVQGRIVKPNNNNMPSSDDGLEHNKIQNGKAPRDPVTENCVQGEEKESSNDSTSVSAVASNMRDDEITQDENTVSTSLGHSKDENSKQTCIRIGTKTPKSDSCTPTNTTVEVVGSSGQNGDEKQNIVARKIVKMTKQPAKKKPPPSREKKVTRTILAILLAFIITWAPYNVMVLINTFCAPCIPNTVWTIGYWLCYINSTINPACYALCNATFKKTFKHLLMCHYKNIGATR

M2 muscarinic receptor [4] = target: T3, M2 muscarinic receptor; experiment: inhibition of forskolin-stimulated cAMP, M2 CHO cells (M2Gi); type: cell-based; details: for Emax: CHO, read-out: E′MAX; for Kd: operational model, read-out: pKA (converted); for EC50: read-out: pEC50 (converted)
M3 muscarinic receptor = M3 muscarinic receptor (Homo sapiens, UniProt P20309); experiment: accumulation of IPX, M3 CHO cells (M3Gq); type: cell-based; details: for Kd: read-out: pKA (converted); for EC50: read-out: pEC50 (converted)
[5] = M4 (↓cAMP), preferential response, Table 7
[6] = M4 (↓cAMP), preferential response, Table 7, operational efficacy
[7] = M4 (↓cAMP), preferential response, Table 7, operational model
[8] = M4 (↓cAMP), preferential response, relative to carbachol, Tables 2, 3, 7
[9] = M4 (↓cAMP), preferential response, to carbachol, Tables 2, 3, 7
[10] = M1 (↑IPX), preferential response, Table 7
[11] = M1 (↑IPX), preferential response, Table 7, operational efficacy
[12] = M1 (↑IPX), preferential response, relative to carbachol, Tables 2, 3, 7
[13] = M1 (↑IPX), preferential response, to carbachol, Tables 2, 3, 7
[14] = competition with 1 nM [3H]NMS, read-out: Inhibition constants (Ki) as negative logarithms, M2 (converted)
[15] = M2 (↓cAMP), preferential response, Table 7
[16] = M2 (↓cAMP), preferential response, Table 7, operational efficacy
[17] = M3 (↑IPX), preferential response, Table 7
[18] = M3 (↑IPX), preferential response, Table 7, operational efficacy
[19] = M3 (↑IPX), preferential response, Table 7, operational model
[20] = M3 (↑IPX), preferential response, relative to carbachol, Tables 2, 3, 7
[21] = M3 (↑IPX), preferential response, to carbachol, Tables 2, 3, 7

M3 muscarinic receptor, sequence (P20309 whole entry): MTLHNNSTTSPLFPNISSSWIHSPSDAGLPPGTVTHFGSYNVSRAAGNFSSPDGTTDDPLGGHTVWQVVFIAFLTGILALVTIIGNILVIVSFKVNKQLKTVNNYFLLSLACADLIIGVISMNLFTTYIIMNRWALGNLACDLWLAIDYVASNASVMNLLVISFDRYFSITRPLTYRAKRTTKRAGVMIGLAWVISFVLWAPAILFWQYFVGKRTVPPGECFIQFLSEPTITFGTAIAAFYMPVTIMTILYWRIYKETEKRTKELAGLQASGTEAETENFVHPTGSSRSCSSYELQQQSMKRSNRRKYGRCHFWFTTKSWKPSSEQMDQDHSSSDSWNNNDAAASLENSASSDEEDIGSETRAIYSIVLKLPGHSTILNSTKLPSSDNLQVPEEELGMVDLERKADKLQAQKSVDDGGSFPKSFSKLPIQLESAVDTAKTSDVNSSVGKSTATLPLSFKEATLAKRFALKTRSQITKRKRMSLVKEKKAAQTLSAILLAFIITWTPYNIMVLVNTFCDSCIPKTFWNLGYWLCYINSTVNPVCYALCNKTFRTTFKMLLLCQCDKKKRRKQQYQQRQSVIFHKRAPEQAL

Emax (M4 muscarinic receptor; [5]): 25 ± 2%
τ (M4 muscarinic receptor; [6]): 0.39 ± 0.04
Kd (M4 muscarinic receptor; [7]): 6.31 µM
EC50 (M4 muscarinic receptor; [5]): 4.27 µM
RAi (M4 muscarinic receptor; [8]): 0.0046 ± 0.0004
Δlog(τ/KA) (M4 muscarinic receptor; [9]): 2.15 ± 0.16
E′MAX (M4 muscarinic receptor; M4Gi (↓cAMP), Table 8): 25 ± 2 % inhibition
τ (M4 muscarinic receptor; M4Gi (↓cAMP), Table 8): 0.39 ± 0.04
RAi (M4 muscarinic receptor; M4Gi (↓cAMP), Table 8, relative to carbachol): 0.0046 ± 0.0004
Δlog(τ/KA) (M4 muscarinic receptor; M4Gi (↓cAMP), Table 8, to carbachol): 2.15 ± 0.16
EC50 (M4 muscarinic receptor; M4Gi (↓cAMP), Table 8): 8.51 µM
Kd (M4 muscarinic receptor; M4Gi (↓cAMP), Table 8): 12.6 µM
E′MAX (M1 muscarinic receptor [1]; [10]): 2.0 ± 0.2 fold over basal
τ (M1 muscarinic receptor [1]; [11]): 0.03 ± 0.01
Kd (M1 muscarinic receptor [1]; [10]): 7.94 µM
EC50 (M1 muscarinic receptor [1]; [10]): 7.94 µM
RAi (M1 muscarinic receptor [1]; [12]): 0.0010 ± 0.0001
Δlog(τ/KA) (M1 muscarinic receptor [1]; [13]): 2.98 ± 0.26
E′MAX (M1 muscarinic receptor [1]; M1Gq (↑IPX), Table 8): 2.0 ± 0.2 fold increase
pEC50 (M1 muscarinic receptor [1]; M1Gq (↑IPX), Table 8): 5.1 ± 0.1
pKA (M1 muscarinic receptor [1]; M1Gq (↑IPX), Table 8): 5.1 ± 0.2
τ (M1 muscarinic receptor [1]; M1Gq (↑IPX), Table 8): 0.03 ± 0.01
RAi (M1 muscarinic receptor [1]; M1Gq (↑IPX), Table 8, relative to carbachol): 0.0011 ± 0.0007
Δlog(τ/KA) (M1 muscarinic receptor [1]; M1Gq (↑IPX), Table 8, to carbachol): 2.96 ± 0.86
Ki (M1 muscarinic receptor [2]): 44.7 µM
Ki (M2 muscarinic receptor [3]; [14]): 42.7 µM
Emax (M2 muscarinic receptor [4]; [15]): 50 ± 2%
τ (M2 muscarinic receptor [4]; [16]): 1.32 ± 0.08
Kd (M2 muscarinic receptor [4]; [15]): 1.58 µM
EC50 (M2 muscarinic receptor [4]; [15]): 0.724 µM
E′MAX (M2 muscarinic receptor [4]; M2Gi (↓cAMP), Table 8): 50 ± 2 % inhibition
pEC50 (M2 muscarinic receptor [4]; M2Gi (↓cAMP), Table 8): 6.14 ± 0.05
pKA (M2 muscarinic receptor [4]; M2Gi (↓cAMP), Table 8): 5.8 ± 0.1
τ (M2 muscarinic receptor [4]; M2Gi (↓cAMP), Table 8): 1.3 ± 0.1
RAi (M2 muscarinic receptor [4]; M2Gi (↓cAMP), Table 8, relative to carbachol): 0.067 ± 0.007
Δlog(τ/KA) (M2 muscarinic receptor [4]; M2Gi (↓cAMP), Table 8, to carbachol): 1.22 ± 0.08
E′MAX (M3 muscarinic receptor; [17]): 2.5 ± 0.2 fold over basal
τ (M3 muscarinic receptor; [18]): 0.06 ± 0.01
Kd (M3 muscarinic receptor; [19]): 5.01 µM
EC50 (M3 muscarinic receptor; [17]): 5.01 µM
RAi (M3 muscarinic receptor; [20]): 0.0058 ± 0.0005
Δlog(τ/KA) (M3 muscarinic receptor; [21]): 2.23 ± 0.23
E′MAX (M3 muscarinic receptor; M3Gq (↑IPX), Table 8): 2.4 ± 0.2 fold over basal
τ (M3 muscarinic receptor; M3Gq (↑IPX), Table 8): 0.05 ± 0.01
RAi (M3 muscarinic receptor; M3Gq (↑IPX), Table 8, relative to carbachol): 0.0056 ± 0.0008
Δlog(τ/KA) (M3 muscarinic receptor; M3Gq (↑IPX), Table 8, to carbachol): 2.26 ± 0.48
EC50 (M3 muscarinic receptor; M3Gq (↑IPX), Table 8): 5.01 µM
Kd (M3 muscarinic receptor; M3Gq (↑IPX), Table 8): 5.01 µM
Structure (SMILES): C1=CCN(Cc2cccs2)CC1.Cl [Compound 6A, 1-[(thiophen-2-yl)methyl]-1,2,3,6-tetrahydropyridin-1-ium chloride]

Emax (M4 muscarinic receptor; [5]): 25 ± 2%
τ (M4 muscarinic receptor; [6]): 0.39 ± 0.04
Kd (M4 muscarinic receptor; [7]): 12.6 µM
EC50 (M4 muscarinic receptor; [5]): 9.77 µM
RAi (M4 muscarinic receptor; [8]): 0.0020 ± 0.0002
Δlog(τ/KA) (M4 muscarinic receptor; [9]): 2.51 ± 0.20
E′MAX (M1 muscarinic receptor [1]; [10]): 2.0 ± 0.2 fold over basal
τ (M1 muscarinic receptor [1]; [11]): 0.03 ± 0.01
Kd (M1 muscarinic receptor [1]; [10]): 15.8 µM
EC50 (M1 muscarinic receptor [1]; [10]): 15.8 µM
RAi (M1 muscarinic receptor [1]; [12]): 0.0005 ± 0.0001
Δlog(τ/KA) (M1 muscarinic receptor [1]; [13]): 3.28 ± 0.38
Ki (M1 muscarinic receptor [2]): 25.1 µM
Ki (M2 muscarinic receptor [3]; [14]): 10.2 µM
Ki (M2 muscarinic receptor [3]; high-affinity fraction of binding to M2, read-out: high affinity binding): ~0.03 µM
Emax (M2 muscarinic receptor [4]; [15]): 47 ± 2%
τ (M2 muscarinic receptor [4]; [16]): 1.15 ± 0.08
Kd (M2 muscarinic receptor [4]; [15]): 20 µM
EC50 (M2 muscarinic receptor [4]; [15]): 9.12 µM
RAi (M2 muscarinic receptor [4]; M2 (↓cAMP), preferential response, relative to carbachol, Tables 2, 3, 7): 0.0047 ± 0.0004
Δlog(τ/KA) (M2 muscarinic receptor [4]; M2 (↓cAMP), preferential response, to carbachol, Tables 2, 3, 7): 2.35 ± 0.16
E′MAX (M3 muscarinic receptor; [17]): 2.0 ± 0.2 fold over basal
τ (M3 muscarinic receptor; [18]): 0.04 ± 0.01
Kd (M3 muscarinic receptor; [19]): 15.8 µM
EC50 (M3 muscarinic receptor; [17]): 31.6 µM
RAi (M3 muscarinic receptor; [20]): 0.0006 ± 0.0001
Δlog(τ/KA) (M3 muscarinic receptor; [21]): 3.24 ± 0.34
Structure (SMILES): Cc1ccc(CN2CC=CCC2)s1.Cl [Compound 6B, 1-[(5-methylthiophen-2-yl)methyl]-1,2,3,6-tetrahydropyridin-1-ium chloride]
